{
  "source": "patent US12448368B2",
  "about": "“Indole compounds as androgen receptor modulators” (NIDO BIOSCIENCES, INC., priority 2020, dated 2025)",
  "data": [
    {"target": "T1, androgen receptor (AR) (Homo sapiens, UniProt P10275, T878A)", "T1 construct": "LNCaP cells expressing ARR2PB-FireflyLuc and CMV-RenillaLuc; endogenous in cells; host or cells: LNCaP cells carrying ARR2PB-FireflyLuc and CMV-RenillaLuc reporters", "T1 sequence (P10275 1-920 T878A)": "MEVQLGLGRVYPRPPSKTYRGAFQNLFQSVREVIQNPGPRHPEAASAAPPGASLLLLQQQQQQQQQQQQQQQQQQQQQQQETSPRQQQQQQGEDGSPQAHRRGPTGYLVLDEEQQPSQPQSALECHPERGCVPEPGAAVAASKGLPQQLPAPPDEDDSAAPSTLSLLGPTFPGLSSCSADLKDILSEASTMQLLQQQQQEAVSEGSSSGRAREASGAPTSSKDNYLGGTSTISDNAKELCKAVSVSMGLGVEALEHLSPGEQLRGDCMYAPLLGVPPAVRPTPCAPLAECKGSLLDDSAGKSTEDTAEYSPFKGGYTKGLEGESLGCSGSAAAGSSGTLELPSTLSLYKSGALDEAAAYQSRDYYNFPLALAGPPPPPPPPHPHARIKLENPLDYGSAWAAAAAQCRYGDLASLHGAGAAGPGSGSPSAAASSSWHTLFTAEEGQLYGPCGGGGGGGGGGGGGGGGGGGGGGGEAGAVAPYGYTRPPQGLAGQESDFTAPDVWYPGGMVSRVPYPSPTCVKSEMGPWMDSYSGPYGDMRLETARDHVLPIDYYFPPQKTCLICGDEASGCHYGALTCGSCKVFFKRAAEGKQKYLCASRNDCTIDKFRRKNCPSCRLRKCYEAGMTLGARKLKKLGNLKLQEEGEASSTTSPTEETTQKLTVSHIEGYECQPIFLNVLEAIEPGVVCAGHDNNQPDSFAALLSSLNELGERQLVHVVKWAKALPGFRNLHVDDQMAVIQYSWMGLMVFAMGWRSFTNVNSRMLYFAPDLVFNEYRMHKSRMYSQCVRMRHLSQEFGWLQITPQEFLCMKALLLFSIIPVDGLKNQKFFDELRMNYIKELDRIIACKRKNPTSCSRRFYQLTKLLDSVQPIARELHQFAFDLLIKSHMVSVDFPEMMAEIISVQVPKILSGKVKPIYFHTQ", "assay": "AR reporter assay in LNCaP cells expressing ARR2PB-FireflyLuc and CMV-RenillaLuc, antagonist mode (% remaining activity, IC50)", "assay_type": "cell-based", "conditions": "48 h at 37° C., class symbols A-D, read-out: IC50", "experimental": "LNCaP cells expressing ARR2PB-FireflyLuc and CMV-RenillaLuc were treated with indicated concentrations of test compounds, enzalutamide (negative control), or DHT (positive control)+/−0.5 nM DHT for 48 h at 37° C. […] Remaining activity (antagonist mode) was calculated as % Remaining Activity=100×[(Readsample−LCave)/(HCave−LCave)] where HC is cells treated with 0.5 nM DHT only and LC is cells treated with 10 uM enzalutamide+0.5 nM DHT. Activation (agonist mode) was calculated as % Activation=100×[(ReadSample−LCave)/(HCave−LCave)] where HC is cells treated with 1 uM DHT and LC is cells treated with DMSO. Dose response curves and IC50 values were calculated using non-linear regression analysis in XLfit.\nThe designation “A” indicates an IC50 value of >10 μM, “B” indicates an IC50 value between 1 μM and 10 μM; “C” indicates an IC50 value between 100 nM and 1 μM; and “D” indicates an IC50 value of less than 100 nM.", "units": {"IC50": "nM"}, "values": [
      {"smiles": "CC1CCNc2ccc(-c3n[nH]c4cc(F)c(F)cc34)nc21", "note": "(single isomer, unassigned) [Compound 47]", "IC50": "100 to 1000"},
      {"smiles": "CC1CCNc2ccc(-c3n[nH]c4cc(F)c(F)cc34)nc21", "note": "(single isomer, unassigned) [Compound 48]", "IC50": "< 100"},
      {"smiles": "c1ccc2nc(-c3n[nH]c4ccc(N5CCOCC5)cc34)ccc2c1", "note": "[Compound 1]", "IC50": "1000 to 10000"},
      {"smiles": "c1ccc2nc(-c3n[nH]c4cc(N5CCOCC5)ccc34)ccc2c1", "note": "[Compound 2]", "IC50": "> 10000"},
      {"smiles": "CN(C)c1ccc2[nH]nc(-c3ccc4ccccc4n3)c2c1", "note": "[Compound 3]", "IC50": "> 10000"},
      {"smiles": "CN(C)c1ccc2c(-c3ccc4ccccc4n3)n[nH]c2c1", "note": "[Compound 4]", "IC50": "> 10000"},
      {"smiles": "c1cnc2ccc(-c3n[nH]c4ccccc34)nc2c1", "note": "[Compound 5]", "IC50": "< 100"},
      {"smiles": "O=c1ccc2nc(-c3n[nH]c4ccccc34)ccc2[nH]1", "note": "[Compound 6]", "IC50": "1000 to 10000"},
      {"smiles": "c1ccc2c(-c3ccc4cnccc4n3)n[nH]c2c1", "note": "[Compound 7]", "IC50": "100 to 1000"},
      {"smiles": "c1ccc2c(-c3ccc4ccncc4n3)n[nH]c2c1", "note": "[Compound 8]", "IC50": "< 100"},
      {"smiles": "c1ccc2c(-c3ccc4c(n3)CCCN4)n[nH]c2c1", "note": "[Compound 9]", "IC50": "100 to 1000"},
      {"smiles": "CN1CCOc2nc(-c3n[nH]c4ccccc34)ccc21", "note": "[Compound 10]", "IC50": "> 10000"},
      {"smiles": "Fc1cc2[nH]nc(-c3ccc4c(n3)CCCN4)c2cc1F", "note": "[Compound 11]", "IC50": "100 to 1000"},
      {"smiles": "COc1nccc2nc(-c3n[nH]c4ccccc34)ccc12", "note": "[Compound 12]", "IC50": "< 100"},
      {"smiles": "CN1CCOc2nc(-c3n[nH]c4cc(F)c(F)cc34)ccc21", "note": "[Compound 13]", "IC50": "1000 to 10000"},
      {"smiles": "Fc1cc2[nH]nc(-c3cc4ccccc4nn3)c2cc1F", "note": "[Compound 14]", "IC50": "> 10000"},
      {"smiles": "COc1ccc2nc(-c3n[nH]c4ccccc34)ccc2n1", "note": "[Compound 16]", "IC50": "> 10000"},
      {"smiles": "Cn1c(=O)ccc2nc(-c3n[nH]c4ccccc34)ccc21", "note": "[Compound 17]", "IC50": "1000 to 10000"},
      {"smiles": "Cn1ccc2nc(-c3n[nH]c4ccccc34)ccc2c1=O", "note": "[Compound 18]", "IC50": "1000 to 10000"},
      {"smiles": "Cc1nccc2nc(-c3n[nH]c4ccccc34)ccc12", "note": "[Compound 19]", "IC50": "< 100"},
      {"smiles": "c1ccc2c(-c3ccc4c(n3)CNCC4)n[nH]c2c1", "note": "[Compound 20]", "IC50": "> 10000"},
      {"smiles": "CC(=O)N1CCc2ccc(-c3n[nH]c4ccccc34)nc2C1", "note": "[Compound 21]", "IC50": "> 10000"},
      {"smiles": "NC1CCCc2nc(-c3n[nH]c4ccccc34)ccc21", "note": "(centres unmarked) [Compound 22]", "IC50": "> 10000"},
      {"smiles": "CC(=O)NC1CCCc2nc(-c3n[nH]c4ccccc34)ccc21", "note": "(centres unmarked) [Compound 23]", "IC50": "> 10000"},
      {"smiles": "CN1CCCc2nc(-c3n[nH]c4cc(F)c(F)cc34)ccc21", "note": "[Compound 24]", "IC50": "1000 to 10000"},
      {"smiles": "CC(=O)N1CCCc2nc(-c3n[nH]c4cc(F)c(F)cc34)ccc21", "note": "[Compound 25]", "IC50": "100 to 1000"},
      {"smiles": "Fc1cc2[nH]nc(-c3ccc4ncccc4n3)c2cc1F", "note": "[Compound 26]", "IC50": "< 100"},
      {"smiles": "Fc1cc2[nH]nc(-c3ccnc4cccnc34)c2cc1F", "note": "[Compound 27]", "IC50": "1000 to 10000"},
      {"smiles": "O=c1[nH]ccc2nc(-c3n[nH]c4cc(F)c(F)cc34)ccc12", "note": "[Compound 28]", "IC50": "100 to 1000"},
      {"smiles": "Cn1ccc2nc(-c3n[nH]c4cc(F)c(F)cc34)ccc2c1=O", "note": "[Compound 29]", "IC50": "> 10000"},
      {"smiles": "Fc1cc2[nH]nc(-c3ccc4c(n3)CCNC4)c2cc1F", "note": "[Compound 30]", "IC50": "> 10000"},
      {"smiles": "CC(=O)N1CCc2nc(-c3n[nH]c4cc(F)c(F)cc34)ccc2C1", "note": "[Compound 31]", "IC50": "> 10000"},
      {"smiles": "Fc1cc2[nH]nc(-c3ccc4c(n3)CNCC4)c2cc1F", "note": "[Compound 32]", "IC50": "> 10000"},
      {"smiles": "Fc1cc2[nH]nc(-c3ccc4c(-c5nnco5)c(F)ccc4n3)c2cc1F", "note": "[Compound 33]", "IC50": "100 to 1000"},
      {"smiles": "Fc1cc2[nH]nc(-c3ccc4cc(F)c(-c5nnco5)cc4n3)c2cc1F", "note": "[Compound 34]", "IC50": "> 10000"},
      {"smiles": "Fc1cc2[nH]nc(-c3ccc4c(-c5nnco5)cccc4n3)c2cc1F", "note": "[Compound 35]", "IC50": "< 100"},
      {"smiles": "O=C(CO)N1CCCc2nc(-c3n[nH]c4cc(F)c(F)cc34)ccc21", "note": "[Compound 36]", "IC50": "1000 to 10000"},
      {"smiles": "COCC(=O)N1CCCc2nc(-c3n[nH]c4cc(F)c(F)cc34)ccc21", "note": "[Compound 37]", "IC50": "> 10000"}
    ]}
  ]
}
